Target: MMP13 (Homo sapiens, UniProt P45452)
Assay: EnzoLyte 520 Generic MMP Assay Kit (FRET peptide substrate), MMP-13 inhibition
Assay type: biochemical
Description: The EnzoLyte™ 520 Generic MMP Assay Kit (AnaSpec Inc.) can detect the activity of several MMPs including MMP-1, 2, 3, 7, 8, 9, 13, and 14. This kit uses a 5-FAM/QXL™ 520 fluorescence resonance energy transfer (FRET) peptide as an MMP substrate. In the intact FRET peptide, the fluorescence of 5-FAM is quenched by QXL™ 520. Upon cleavage into two separate fragments by MMPs, the fluorescence of 5-FAM is recovered, and can be monitored at excitation/emission wavelengths=490 nm/520 nm. The assays are performed in a convenient 96-well or 384-well microplate format.

SMILES	IC50
CNC(=O)[C@@H](NC(=O)c1ccc(-c2ccc3cc[nH]c3c2)o1)C1CCCCC1 [5-(1H-Indol-6-yl)-furan-2-carboxylic acid ((S)-cyclohexyl-methylcarbamoyl-methyl)-amide]	290 nM
CNC(=O)[C@@H](NC(=O)c1ccc(-c2cc3[nH]ccc3cn2)o1)C1CCCCC1 [5-(1H-Pyrrolo[3,2-c]pyridin-6-yl)-furan-2-carboxylic acid ((S)-cyclohexyl-methylcarbamoyl-methyl)-amide]	103 nM
CNC(=O)[C@@H](NC(=O)c1ccc(-c2ccc3nc(Cc4ccncc4)[nH]c3c2)o1)C1CCCCC1 [5-(2-Pyridin-4-ylmethyl-3H-benzimidazol-5-yl)-furan-2-carboxylic acid ((S)-cyclohexyl-methylcarbamoyl-methyl)-amide]	34 nM
CNC(=O)[C@@H](NC(=O)c1ccc(-c2ccc3nc[nH]c3c2)o1)C1CCCCC1 [5-(3H-Benzimidazol-5-yl)-furan-2-carboxylic acid ((S)-cyclohexyl-methylcarbamoyl-methyl)-amide]	270 nM
CNC(=O)[C@@H](NC(=O)c1ccc(-c2ccc3cc(C(=O)N4CCS(=O)(=O)CC4)[nH]c3c2)o1)C(C)C [5-[2-(1,1-Dioxo-λ^6-1-thiomorpholine-4-carbonyl)-1H-indol-6-yl]-furan-2-carboxylic acid ((S)-2-methyl-1-methylcarbamoyl-propyl)-amide]	200 nM
CNC(=O)[C@@H](NC(=O)c1ccc(-c2ccc3cc(C(=O)N4CC(C)OC(C)C4)[nH]c3c2)o1)C(C)C (stereo partly drawn) [5-[2-(2,6-Dimethyl-morpholine-4-carbonyl)-1H-indol-6-yl]-furan-2-carboxylic acid ((S)-2-methyl-1-methylcarbamoyl-propyl)-amide]	65 nM
CNC(=O)[C@@H](NC(=O)c1ccc(-c2ccc3cc(C(=O)N4CCN(C)CC4)[nH]c3c2)o1)C(C)C [5-[2-(4-Methyl-piperazine-1-carbonyl)-1H-indol-6-yl]-furan-2-carboxylic acid ((S)-2-methyl-1-methylcarbamoyl-propyl)-amide]	300 nM
CNC(=O)[C@@H](NC(=O)c1ccc(-c2ccc3cc(C(=O)N4CCOCC4)[nH]c3c2)o1)C(C)C [5-[2-(Morpholine-4-carbonyl)-1H-indol-6-yl]-furan-2-carboxylic acid ((S)-2-methyl-1-methylcarbamoyl-propyl)-amide]	415 nM
CNC(=O)[C@@H](NC(=O)c1ccc(-c2ccc3cc(C(=O)N4CCOCC4)[nH]c3c2)o1)C1CCCCC1 [5-[2-(Morpholine-4-carbonyl)-1H-indol-6-yl]-furan-2-carboxylic acid ((S)-cyclohexyl-methylcarbamoyl-methyl)-amide]	340 nM

— patent US8338367B2, “Fused heteroaryl diamide compounds useful as MMP-13 inhibitors” (Boehringer Ingelheim International GmbH, priority 2008, dated 2012)
